Calls of active or inactive are those of the source. No cut-off for these calls is given here.
Key:
[1] = biological target: T1, Platelet-derived growth factor receptor beta (Homo sapiens, UniProt P09619); experiment: Inhibitory activity against PDGFRbeta kinase at 20 uM
[2] = biological target: T2, Epidermal growth factor receptor (Homo sapiens, UniProt P00533); settings: 20 uM
Description: Inhibitory activity against EGFR kinase at 20 uM

[3] = biological target: T3, Fibroblast growth factor receptor 1 (Homo sapiens, UniProt P11362); experiment: Inhibitory activity against FGFR1 kinase at 20 uM
Target sequence in this assay (P11362 22-822 limits assumed): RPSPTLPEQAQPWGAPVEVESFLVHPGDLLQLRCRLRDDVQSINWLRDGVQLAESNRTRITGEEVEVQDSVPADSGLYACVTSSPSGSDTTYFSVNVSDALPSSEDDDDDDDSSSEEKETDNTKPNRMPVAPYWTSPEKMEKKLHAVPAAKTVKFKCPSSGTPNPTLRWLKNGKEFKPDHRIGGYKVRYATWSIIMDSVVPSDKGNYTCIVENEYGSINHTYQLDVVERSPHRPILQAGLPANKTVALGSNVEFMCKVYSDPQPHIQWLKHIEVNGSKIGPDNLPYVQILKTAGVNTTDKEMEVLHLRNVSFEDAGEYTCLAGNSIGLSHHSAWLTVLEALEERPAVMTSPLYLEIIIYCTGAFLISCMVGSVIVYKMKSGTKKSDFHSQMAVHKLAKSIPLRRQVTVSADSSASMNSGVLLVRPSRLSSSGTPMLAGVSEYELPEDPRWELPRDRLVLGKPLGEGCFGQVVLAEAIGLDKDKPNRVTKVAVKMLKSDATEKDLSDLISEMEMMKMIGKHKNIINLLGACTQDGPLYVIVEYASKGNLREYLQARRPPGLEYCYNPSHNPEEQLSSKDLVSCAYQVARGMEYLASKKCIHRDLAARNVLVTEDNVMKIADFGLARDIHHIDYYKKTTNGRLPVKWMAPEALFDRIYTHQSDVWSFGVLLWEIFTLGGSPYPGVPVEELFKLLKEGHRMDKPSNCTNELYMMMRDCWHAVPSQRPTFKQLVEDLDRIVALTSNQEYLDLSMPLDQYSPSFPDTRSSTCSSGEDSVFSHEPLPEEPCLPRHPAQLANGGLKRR

[4] = biological target: T4, Vascular endothelial growth factor receptor 2 (Homo sapiens, UniProt P35968); experiment: Inhibitory activity against VEGFR2 kinase at 20 uM
[5] = biological target: T2, Epidermal growth factor receptor; experiment: Inhibitory activity against EGFR kinase
[6] = biological target: T3, Fibroblast growth factor receptor 1; experiment: Inhibitory activity against FGFR1 kinase
Target sequence in this assay (P11362 whole entry): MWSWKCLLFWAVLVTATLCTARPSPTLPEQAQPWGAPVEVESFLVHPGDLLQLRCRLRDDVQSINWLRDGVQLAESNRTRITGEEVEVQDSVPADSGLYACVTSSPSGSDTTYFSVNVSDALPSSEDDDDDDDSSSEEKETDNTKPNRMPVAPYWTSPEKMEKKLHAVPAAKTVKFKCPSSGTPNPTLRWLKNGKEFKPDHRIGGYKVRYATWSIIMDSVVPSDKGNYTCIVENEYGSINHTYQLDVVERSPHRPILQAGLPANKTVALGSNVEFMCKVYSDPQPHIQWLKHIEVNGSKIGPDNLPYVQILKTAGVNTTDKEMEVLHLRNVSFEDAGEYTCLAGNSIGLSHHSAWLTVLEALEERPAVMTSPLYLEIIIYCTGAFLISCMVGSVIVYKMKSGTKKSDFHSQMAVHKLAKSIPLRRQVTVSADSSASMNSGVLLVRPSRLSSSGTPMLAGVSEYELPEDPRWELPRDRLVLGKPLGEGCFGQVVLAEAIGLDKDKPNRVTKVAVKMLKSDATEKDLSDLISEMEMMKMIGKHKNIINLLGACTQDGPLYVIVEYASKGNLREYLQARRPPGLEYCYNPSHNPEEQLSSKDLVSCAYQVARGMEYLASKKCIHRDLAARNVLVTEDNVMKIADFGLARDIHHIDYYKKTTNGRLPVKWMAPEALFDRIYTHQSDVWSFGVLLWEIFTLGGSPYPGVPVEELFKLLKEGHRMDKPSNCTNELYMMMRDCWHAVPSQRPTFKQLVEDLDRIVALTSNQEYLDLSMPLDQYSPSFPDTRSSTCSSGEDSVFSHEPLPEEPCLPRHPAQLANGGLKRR

[7] = biological target: T1, Platelet-derived growth factor receptor beta; experiment: Inhibitory activity against PDGFRbeta kinase
[8] = biological target: T4, Vascular endothelial growth factor receptor 2; experiment: Inhibitory activity against VEGFR2 kinase
HUVEC [9] = experiment: Inhibition of HUVEC tube formation at 10 uM; type: functional, cell-based; settings: Homo sapiens
A-431 = experiment: Cytotoxicity against epidermoid carcinoma A431 cell line; type: functional, cell-based; settings: Homo sapiens
[10] = biological target: T2, Epidermal growth factor receptor; experiment: Intracellular inhibition of autophosphorylation of EGFR in A431 cells; type: functional, cell-based; settings: A-431
HUVEC [11] = experiment: Inhibition of HUVEC tube formation at 2 uM; type: functional, cell-based; settings: Homo sapiens
[12] = biological target: T2, Epidermal growth factor receptor; experiment: Inhibition of ERK2 phosphorylation in EGF-treated A431 cells at 1 uM; type: functional, cell-based; settings: A-431
[13] = biological target: T2, Epidermal growth factor receptor; experiment: Inhibition of ERK1 phosphorylation in EGF-treated A431 cells at 1 uM; type: functional, cell-based; settings: A-431
[14] = biological target: T2, Epidermal growth factor receptor; experiment: Inhibition of MEK1 phosphorylation in EGF-treated A431 cells at 1 uM; type: functional, cell-based; settings: A-431
[15] = biological target: T2, Epidermal growth factor receptor; experiment: Inhibition of MEK2 phosphorylation in EGF-treated A431 cells at 1 uM; type: functional, cell-based; settings: A-431

T2 sequence (P00533 whole entry): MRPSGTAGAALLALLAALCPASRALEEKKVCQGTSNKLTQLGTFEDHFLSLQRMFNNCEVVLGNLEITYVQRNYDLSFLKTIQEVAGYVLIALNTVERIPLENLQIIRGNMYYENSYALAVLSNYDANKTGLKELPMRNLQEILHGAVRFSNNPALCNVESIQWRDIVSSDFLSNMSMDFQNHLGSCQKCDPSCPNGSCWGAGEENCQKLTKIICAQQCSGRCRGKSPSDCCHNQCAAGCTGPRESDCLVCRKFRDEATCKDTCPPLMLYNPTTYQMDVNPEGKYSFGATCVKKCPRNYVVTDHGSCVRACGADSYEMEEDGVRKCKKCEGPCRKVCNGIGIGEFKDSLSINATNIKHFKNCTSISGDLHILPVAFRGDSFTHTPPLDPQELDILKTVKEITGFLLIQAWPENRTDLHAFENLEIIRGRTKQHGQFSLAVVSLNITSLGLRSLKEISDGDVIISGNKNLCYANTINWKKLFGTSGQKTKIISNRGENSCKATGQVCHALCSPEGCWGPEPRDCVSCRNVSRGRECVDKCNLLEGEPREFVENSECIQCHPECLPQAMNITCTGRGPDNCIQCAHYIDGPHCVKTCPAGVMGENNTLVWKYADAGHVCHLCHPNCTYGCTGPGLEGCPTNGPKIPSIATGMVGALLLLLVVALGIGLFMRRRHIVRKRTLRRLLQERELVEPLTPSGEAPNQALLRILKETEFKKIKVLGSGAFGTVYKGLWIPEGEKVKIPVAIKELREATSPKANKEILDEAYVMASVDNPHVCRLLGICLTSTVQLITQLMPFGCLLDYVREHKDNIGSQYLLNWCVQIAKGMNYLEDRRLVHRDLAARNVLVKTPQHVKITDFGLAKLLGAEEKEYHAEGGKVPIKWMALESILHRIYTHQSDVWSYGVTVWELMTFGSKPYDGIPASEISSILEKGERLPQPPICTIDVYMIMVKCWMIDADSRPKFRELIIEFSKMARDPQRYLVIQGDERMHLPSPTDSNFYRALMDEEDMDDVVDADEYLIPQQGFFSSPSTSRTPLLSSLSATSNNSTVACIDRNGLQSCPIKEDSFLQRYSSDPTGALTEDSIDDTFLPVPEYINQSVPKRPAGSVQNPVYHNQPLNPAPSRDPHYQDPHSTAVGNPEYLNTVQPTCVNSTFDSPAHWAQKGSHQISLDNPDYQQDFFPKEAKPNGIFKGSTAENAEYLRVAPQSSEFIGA
T4 sequence (P35968 whole entry): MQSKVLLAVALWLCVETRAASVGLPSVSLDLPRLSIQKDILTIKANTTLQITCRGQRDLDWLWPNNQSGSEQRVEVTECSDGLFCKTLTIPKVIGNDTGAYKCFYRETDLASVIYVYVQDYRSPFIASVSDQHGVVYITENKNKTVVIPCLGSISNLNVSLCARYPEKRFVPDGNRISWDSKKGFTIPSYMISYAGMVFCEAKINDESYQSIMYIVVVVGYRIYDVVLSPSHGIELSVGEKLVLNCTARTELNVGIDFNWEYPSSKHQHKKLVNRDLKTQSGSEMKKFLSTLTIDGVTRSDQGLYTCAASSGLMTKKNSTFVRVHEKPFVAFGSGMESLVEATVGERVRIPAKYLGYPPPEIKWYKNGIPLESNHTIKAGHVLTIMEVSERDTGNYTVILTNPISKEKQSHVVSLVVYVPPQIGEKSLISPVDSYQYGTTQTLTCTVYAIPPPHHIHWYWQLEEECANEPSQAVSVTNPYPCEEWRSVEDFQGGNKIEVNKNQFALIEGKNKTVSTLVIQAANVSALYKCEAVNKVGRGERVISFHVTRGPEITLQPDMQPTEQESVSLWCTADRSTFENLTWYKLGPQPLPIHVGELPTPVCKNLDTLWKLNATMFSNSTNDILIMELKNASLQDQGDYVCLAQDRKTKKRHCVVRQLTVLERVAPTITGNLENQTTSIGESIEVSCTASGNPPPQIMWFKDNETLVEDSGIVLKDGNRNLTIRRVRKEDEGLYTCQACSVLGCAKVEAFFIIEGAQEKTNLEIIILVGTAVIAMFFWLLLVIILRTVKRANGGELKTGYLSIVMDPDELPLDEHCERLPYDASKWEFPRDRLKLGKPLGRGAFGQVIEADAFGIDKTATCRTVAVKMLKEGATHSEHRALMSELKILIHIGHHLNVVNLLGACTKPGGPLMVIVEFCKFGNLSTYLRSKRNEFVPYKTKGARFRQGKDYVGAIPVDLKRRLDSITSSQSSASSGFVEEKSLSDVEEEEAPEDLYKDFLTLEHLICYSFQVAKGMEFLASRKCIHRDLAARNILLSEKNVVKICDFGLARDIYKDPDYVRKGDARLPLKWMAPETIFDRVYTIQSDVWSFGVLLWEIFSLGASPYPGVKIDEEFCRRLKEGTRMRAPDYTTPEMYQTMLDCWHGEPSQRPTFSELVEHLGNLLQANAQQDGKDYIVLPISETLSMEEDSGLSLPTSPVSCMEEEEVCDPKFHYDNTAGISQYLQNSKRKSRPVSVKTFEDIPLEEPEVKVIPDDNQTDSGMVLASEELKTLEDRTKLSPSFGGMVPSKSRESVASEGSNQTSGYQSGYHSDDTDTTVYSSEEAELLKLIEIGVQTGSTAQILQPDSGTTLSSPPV

SMILES	inhibition [1]	inhibition [2]	inhibition [3]	inhibition [4]	IC50 [5]	IC50 [6]	IC50 [7]	IC50 [8]	Activity (HUVEC [9])	IC50 (A-431)	Activity [10]	Activity (HUVEC [11])	Activity [12]	Activity [13]	Activity [14]	Activity [15]
COC(=O)c1c(OCc2ccc(C(F)(F)F)cc2)c2ccccc2c2oc3c(c12)C(=O)c1ccccc1C3=O	51.5%	33.6%	44.5%	40.9%												
COC(=O)c1c(O)c2ccccc2c2oc3c(c12)C(=O)c1ccccc1C3=O	2.8%	21.4%	12.6%	16%												
COC(=O)c1c(OCCN2CCN(Cc3ccc(C(F)(F)F)cc3)CC2)c2ccccc2c2oc3c(c12)C(=O)c1ccccc1C3=O	52%	47.5%	48.2%	43.3%												
COC(=O)c1c(OC(C)=O)c2ccccc2c2oc3c(c12)C(=O)c1ccccc1C3=O	-0.3%	21.6%	-8.1%													
COC(=O)c1c(OCc2ccncc2)c2ccccc2c2oc3c(c12)C(=O)c1ccccc1C3=O	2.9%	19.4%	2.6%	3.1%												
COC(=O)c1c(OC)c2ccccc2c2oc3c(c12)C(=O)c1ccccc1C3=O	12.7%	16.7%	10.5%	-0.8%	12.6 µM	> 50 µM	> 50 µM									
COC(=O)c1c(OCc2ccc(C(=O)OC(C)(C)C)cc2)c2ccccc2c2oc3c(c12)C(=O)c1ccccc1C3=O	62.2%	57.1%	50.8%	52.2%												
COC(=O)c1c(OCc2ccc(OC)cc2)c2ccccc2c2oc3c(c12)C(=O)c1ccccc1C3=O	69.4%	72.6%	46%	48.3%												
COC(=O)c1c(OCCCN2CCN(c3ccccc3Cl)CC2)c2ccccc2c2oc3c(c12)C(=O)c1ccccc1C3=O	68.9%	68.3%	55.5%	62.1%												
CCCOc1c(C(=O)OC)c2c3c(oc2c2ccccc12)C(=O)c1ccccc1C3=O	5.7%	38.7%	2.4%	-2.1%	> 50 µM	> 50 µM	> 50 µM									
CCN(CC)CCOc1c(C(=O)OC)c2c3c(oc2c2ccccc12)C(=O)c1ccccc1C3=O	64.1%	82.1%	61.1%	60.4%	5.1 µM	8.8 µM	15.9 µM	12.6 µM	Active	1.7 µM	Active					
COC(=O)c1c(OCCN2CCCC2)c2ccccc2c2oc3c(c12)C(=O)c1ccccc1C3=O	95.5%	77.1%	65.2%	86.5%	9 µM	23.8 µM	8.7 µM	5.5 µM		1.1 µM						
COC(=O)c1c(OCCCN(C)C)c2ccccc2c2oc3c(c12)C(=O)c1ccccc1C3=O	57.2%	72.4%	51.2%	57.5%	13.6 µM	38.4 µM	10.2 µM	15.5 µM								
COC(=O)c1c(OCCN(C)C)c2ccccc2c2oc3c(c12)C(=O)c1ccccc1C3=O	56.5%	71%	51%	57.1%	31 µM	23.6 µM	7.6 µM	13 µM	Active	1.1 µM		Active				
N#CC(C#N)=C(N)/C(C#N)=C/c1cc(O)c(O)c(O)c1 [TYRPHOSTIN 51]	82%	90%	93%	88%	4.1 µM	4.9 µM	2.8 µM	4.3 µM								
COC(=O)c1c(OCCN2CCCCC2)c2ccccc2c2oc3c(c12)C(=O)c1ccccc1C3=O	89.8%	84.3%	79.1%	81.7%	2.8 µM	7.1 µM	5.5 µM	4.6 µM	Active	4.3 µM	Active		Active	Active	Active	Active
COC(=O)c1c(OCCN2CCOCC2)c2ccccc2c2oc3c(c12)C(=O)c1ccccc1C3=O	46.2%	67.9%	41.4%	40.7%												

Reference: ChEMBL document CHEMBL1149378, “Naphthofuroquinone derivatives: inhibition of receptor tyrosine kinases” (Bioorg Med Chem Lett, 2006)
